pKi: −log10 of the molar value.
These molecules were tested against HPK1 (Homo sapiens (Human), UniProt Q92918) (assay: HPK1 Lantha binding assay ("Lanth")). Conditions: binding assays; Morrison Ki fit.
Summary of the method: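 Ki values are from Morrison-equation fitting of 665/615 nm TR-FRET signals, taking enzyme level, tracer level and tracer Kd into account. The assay mix held HPK1 (2 nM), Eu-anti-GST antibody (2 nM) and Tracer222 (15 nM). Incubations were two 1 h steps at 23 °C, on 5-fold serial compound dilutions.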

HPK1, sequence (Q92918 1-346 limits assumed): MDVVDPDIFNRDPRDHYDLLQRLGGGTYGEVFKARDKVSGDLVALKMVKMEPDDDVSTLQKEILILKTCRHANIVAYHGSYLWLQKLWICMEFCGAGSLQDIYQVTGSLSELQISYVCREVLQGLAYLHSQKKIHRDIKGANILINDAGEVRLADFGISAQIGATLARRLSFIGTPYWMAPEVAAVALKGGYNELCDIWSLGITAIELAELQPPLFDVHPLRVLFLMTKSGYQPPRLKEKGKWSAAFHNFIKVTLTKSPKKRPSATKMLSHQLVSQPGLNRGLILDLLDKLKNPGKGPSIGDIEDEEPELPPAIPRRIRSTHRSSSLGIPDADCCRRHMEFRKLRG

**Q.** `CC1CN(C(=O)c2cccc(-c3cnc4c(c3)C3(CC3)CN4)c2F)C1` [Compound 142, (3-(1′,2′-dihydrospiro[cyclopropane-1,3′-pyrrolo[2,3-b]pyridin]-5′-yl)-2-fluorophenyl)(3-methylazetidin-1-yl)methanone] was tested. Which pKi did it give?
**A.** 6.94

**Q.** With `CN(C)C(=O)c1c(N)ccc(-c2cnc3c(c2Cl)[C@]2(CC[C@@H](O)CC2)CN3)c1F` [Compound 144a, 6-Amino-3-((1r,4r)-4′-chloro-4-hydroxy-1′,2′-dihydrospiro[cyclohexane-1,3′-pyrrolo[2,3-b]pyridin]-5′-yl)-2-fluoro-N,N-dimethylbenzamide] as the molecule, how does the pKi read?
**A.** 7.40

**Q.** `CN(C)C(=O)c1c(N)ccc(-c2cnc3c(c2Cl)[C@]2(CC[C@H](O)CC2)CN3)c1F` [Compound 144b, 6-Amino-3-((1s,4s)-4′-chloro-4-hydroxy-1′,2′-dihydrospiro[cyclohexane-1,3′-pyrrolo[2,3-b]pyridin]-5′-yl)-2-fluoro-N,N-dimethylbenzamide] was tested. Which pKi did it give?
**A.** 8.00

**Q.** `CN(C)C(=O)c1c(N)ccc(-c2cnc3c(c2Cl)C2(CCC(c4cccnc4)C2)CN3)c1F` (centres unmarked) [Compound 145, 6-Amino-3-(4′-chloro-3-(pyridin-3-yl)-1′,2′-dihydrospiro[cyclopentane-1,3′-pyrrolo[2,3-b]pyridin]-5′-yl)-2-fluoro-N,N-dimethylbenzamide] was tested. Which pKi did it give?
**A.** 8.03

**Q.** `CN(C)C(=O)c1c(N)ccc(-c2cnc3c(c2Cl)[C@]2(CC[C@@H](c4cccnc4)C2)CN3)c1F` [Compound 145a, 6-Amino-3-((1R,3R)-4′-chloro-3-(pyridin-3-yl)-1′,2′-dihydrospiro[cyclopentane-1,3′-pyrrolo[2,3-b]pyridin]-5′-yl)-2-fluoro-N,N-dimethylbenzamide] was tested. Which pKi did it give?
**A.** 8.00

**Q.** `CN(C)C(=O)c1c(N)ccc(-c2cnc3c(c2Cl)[C@]2(CC[C@H](c4cccnc4)C2)CN3)c1F` [Compound 145c, 6-Amino-3-((1R,3S)-4′-chloro-3-(pyridin-3-yl)-1′,2′-dihydrospiro[cyclopentane-1,3′-pyrrolo[2,3-b]pyridin]-5′-yl)-2-fluoro-N,N-dimethylbenzamide] was tested. Which pKi did it give?
**A.** 7.98

**Q.** With `CN(C)C(=O)c1c(N)ccc(-c2cnc3c(c2Cl)[C@@]2(CC[C@@H](c4cccnc4)C2)CN3)c1F` [Compound 145d, 6-Amino-3-((1S,3R)-4′-chloro-3-(pyridin-3-yl)-1′,2′-dihydrospiro[cyclopentane-1,3′-pyrrolo[2,3-b]pyridin]-5′-yl)-2-fluoro-N,N-dimethylbenzamide] as the molecule, how does the pKi read?
**A.** 7.70

**Q.** How did the pKi turn out when `O=C(c1cccc(-c2cnc3c(c2)C2(CC2)CN3)c1F)N1CCC12COC2` [Compound 147, (3-(1′,2′-dihydrospiro[cyclopropane-1,3′-pyrrolo[2,3-b]pyridin]-5′-yl)-2-fluorophenyl)(6-oxa-1-azaspiro[3.3]heptan-1-yl)methanone] was run?
**A.** 7.21

**Q.** How did the pKi turn out when `Cc1cnn([C@H]2CC[C@]3(CC2)CNc2ncc(-c4ccc(N)c(C(=O)N(C)C)c4F)c(Cl)c23)c1` [Compound 148a, 6-Amino-3-((1s,4s)-4′-chloro-4-(4-methyl-1H-pyrazol-1-yl)-1′,2′-dihydrospiro[cyclohexane-1,3′-pyrrolo[2,3-b]pyridin]-5′-yl)-2-fluoro-N,N-dimethylbenzamide] was run?
**A.** 8.66

**Q.** How did the pKi turn out when `CN(C)C(=O)c1cccc(-c2cnc3c(c2)C2(CC2)CN3)c1F` [Compound 149, 3-(1′,2′-dihydrospiro[cyclopropane-1,3′-pyrrolo[2,3-b]pyridin]-5′-yl)-2-fluoro-N,N-dimethylbenzamide] was run?
**A.** 7.47

**Q.** How did the pKi turn out when `N#C[C@H]1CCCN1C(=O)c1cccc(-c2cnc3c(c2)C2(CC2)CN3)c1F` [Compound 154a, (R)-1-(3-(1′,2′-dihydrospiro[cyclopropane-1,3′-pyrrolo[2,3-b]pyridin]-5′-yl)-2-fluorobenzoyl)pyrrolidine-2-carbonitrile] was run?
**A.** 7.85

**Q.** With `Cc1ccnn1[C@H]1CC[C@@]2(CNc3ncc(-c4ccc(N)c(C(=O)N(C)C)c4F)c(Cl)c32)C1` [Compound 160a, 6-Amino-3-((1R,3S)-4′-chloro-3-(5-methyl-1H-pyrazol-1-yl)-1′,2′-dihydrospiro[cyclopentane-1,3′-pyrrolo[2,3-b]pyridin]-5′-yl)-2-fluoro-N,N-dimethylbenzamide] as the molecule, how does the pKi read?
**A.** 7.25

**Q.** With `CN(Cc1cnn(C)c1)C(=O)c1c(N)ccc(-c2cnc3c(c2Cl)C2(CC2)CN3)c1F` [Compound 166, 6-Amino-3-(4′-chloro-1′,2′-dihydrospiro[cyclopropane-1,3′-pyrrolo[2,3-b]pyridin]-5′-yl)-2-fluoro-N-methyl-N-((1-methyl-1H-pyrazol-4-yl)methyl)benzamide] as the molecule, how does the pKi read?
**A.** 8.36

**Q.** How did the pKi turn out when `CN(C)C(=O)c1c(N)ccc(-c2cnc3c(c2Cl)[C@]2(CC[C@H](n4nccc4C(F)(F)F)C2)CN3)c1F` [Compound 169a, 6-Amino-3-((1R,3S)-4′-chloro-3-(5-(trifluoromethyl)-1H-pyrazol-1-yl)-1′,2′-dihydrospiro[cyclopentane-1,3′-pyrrolo[2,3-b]pyridin]-5′-yl)-2-fluoro-N,N-dimethylbenzamide] was run?
**A.** 7.27

**Q.** How did the pKi turn out when `O=C(c1cccc(-c2cnc3c(c2)C2(CC2)CN3)c1F)N1CCc2ccccc21` [Compound 172, (3-(1′,2′-dihydrospiro[cyclopropane-1,3′-pyrrolo[2,3-b]pyridin]-5′-yl)-2-fluorophenyl)(indolin-1-yl)methanone] was run?
**A.** 6.50

**Q.** `O=C(c1cccc(-c2cnc3c(c2)C2(CC2)CN3)c1F)N1CCc2ccncc21` [Compound 176, (2,3-dihydro-1H-pyrrolo[2,3-c]pyridin-1-yl)(3-(1′,2′-dihydrospiro[cyclopropane-1,3′-pyrrolo[2,3-b]pyridin]-5′-yl)-2-fluorophenyl)methanone] was tested. Which pKi did it give?
**A.** 6.90

**Q.** With `OCc1ccc(-c2cnc3c(c2Cl)C2(CC=CC2)CN3)cc1` [Compound 181, (4-(4′-Chloro-1′,2′-dihydrospiro[cyclopentane-1,3′-pyrrolo[2,3-b]pyridin]-3-en-5′-yl)phenyl)methanol] as the molecule, how does the pKi read?
**A.** 6.70

**Q.** `CC(C)(O)c1ccc(-c2cnc3c(c2Cl)C2(CC=CC2)CN3)cc1` [Compound 182, 2-(4-(4′-Chloro-1′,2′-dihydrospiro[cyclopentane-1,3′-pyrrolo[2,3-b]pyridin]-3-en-5′-yl)phenyl)propan-2-ol] was tested. Which pKi did it give?
**A.** 6.08

**Q.** With `CS(=O)(=O)c1cccc(-c2cnc3c(c2Cl)C2(CC=CC2)CN3)c1` [Compound 183] as the molecule, how does the pKi read?
**A.** 7.52

**Q.** `CCS(=O)(=O)c1cccc(-c2cnc3c(c2Cl)C2(CC=CC2)CN3)c1` [Compound 184, 4′-Chloro-5′-(3-(ethylsulfonyl)phenyl)-1′,2′-dihydrospiro[cyclopentane-1,3′-pyrrolo[2,3-b]pyridin]-3-ene] was tested. Which pKi did it give?
**A.** 7.30

**Q.** `CNS(=O)(=O)c1cccc(-c2cnc3c(c2Cl)C2(CC=CC2)CN3)c1` [Compound 185, 3-(4′-Chloro-1′,2′-dihydrospiro[cyclopentane-1,3′-pyrrolo[2,3-b]pyridin]-3-en-5′-yl)-N-methylbenzenesulfonamide] was tested. Which pKi did it give?
**A.** 7.12

**Q.** With `CS(=O)(=O)c1ccc(-c2cnc3c(c2Cl)C2(CC=CC2)CN3)cc1` [Compound 186, 4′-Chloro-5′-(4-(methylsulfonyl)phenyl)-1′,2′-dihydrospiro[cyclopentane-1,3′-pyrrolo[2,3-b]pyridin]-3-ene] as the molecule, how does the pKi read?
**A.** 6.56

**Q.** `CCS(=O)(=O)c1ccc(-c2cnc3c(c2Cl)C2(CC=CC2)CN3)cc1` [Compound 187, 4′-Chloro-5′-(4-(ethylsulfonyl)phenyl)-1′,2′-dihydrospiro[cyclopentane-1,3′-pyrrolo[2,3-b]pyridin]-3-ene] was tested. Which pKi did it give?
**A.** 6.52

— US12208088B2 (Genentech, Inc., priority 2018, dated 2025)
